Columns and labels:
HT-29 tumor cells = assay: Anti-proliferative activity, SRB assay; type: cell-based, human; conditions: Homo sapiens, HT-29, 72 h, 72 hours exposure, read-out: CELLULAR IC50 HT-29
Outline: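 IC50 derived from % inhibition relative to DMSO controls, measured by sulforhodamine B binding (OD570) after TCA fixation. Cells (3,000-15,000 per well) were seeded a day ahead, then treated with graded compound concentrations for 72 hours.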

[1] = target: C-Raf Raf-1 (truncated), active (Homo sapiens, UniProt P04049, Y340D/Y341D); assay: C-Raf kinase inhibition (MAPH assay / IMAP assay); conditions: read-out: Biochemical IC50 C-Raf
Chain of C-Raf Raf-1 (truncated), active (P04049 306-648 Y340D/Y341D): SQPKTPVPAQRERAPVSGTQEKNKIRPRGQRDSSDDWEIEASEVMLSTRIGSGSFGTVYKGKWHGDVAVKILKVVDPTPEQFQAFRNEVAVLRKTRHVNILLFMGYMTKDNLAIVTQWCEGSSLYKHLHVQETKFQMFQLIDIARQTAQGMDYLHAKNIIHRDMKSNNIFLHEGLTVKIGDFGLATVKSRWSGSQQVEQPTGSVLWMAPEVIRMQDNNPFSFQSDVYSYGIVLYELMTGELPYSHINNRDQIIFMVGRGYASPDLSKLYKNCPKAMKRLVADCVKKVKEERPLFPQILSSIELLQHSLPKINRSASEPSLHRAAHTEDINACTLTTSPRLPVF
Outline: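 Truncated active human C-Raf (Y340D/Y341D), room temperature, top inhibitor concentration 10 μM in a dilution series for IC50. MAPH: 57.8 μM myelin basic protein with [γ-33P]ATP, kinase at 10% ATP turnover, 1 h, filter-bound radioactivity. IMAP: 400 nM fluorescent peptide, 20 mM Hepes pH 7.5 with 10 mM MnCl2, kinase at 50% turnover, fluorescence polarization.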

B-Raf delta1-415 = B-Raf delta1-415 (Homo sapiens, UniProt P15056); assay: B-Raf kinase inhibition (MAPH filter plate, 33P-ATP, MEK1 substrate); conditions: read-out: Biochemical IC50 B-Raf
Chain of B-Raf delta1-415 (P15056 416-766): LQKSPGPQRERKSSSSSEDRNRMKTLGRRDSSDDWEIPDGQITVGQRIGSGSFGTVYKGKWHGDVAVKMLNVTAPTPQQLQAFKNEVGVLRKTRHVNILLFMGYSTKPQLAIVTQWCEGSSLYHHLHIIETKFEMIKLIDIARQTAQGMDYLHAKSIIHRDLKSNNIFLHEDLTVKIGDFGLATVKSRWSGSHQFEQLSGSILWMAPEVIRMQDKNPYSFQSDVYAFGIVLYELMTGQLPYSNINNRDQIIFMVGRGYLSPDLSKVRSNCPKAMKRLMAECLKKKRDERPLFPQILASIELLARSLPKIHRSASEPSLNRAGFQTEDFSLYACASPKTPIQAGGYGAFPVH
Outline: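 IC50 values come from dilution series (top 10 μM) measured by scintillation counting of 33P-labelled MEK1 retained on H3PO4-washed filters. Reactions ran 1 h at room temperature in pH 7.0 Mops buffer with MgCl2, MnCl2 and DTT, using 12.5 μCi/ml [γ-33P]ATP and B-Raf delta1-415 titrated to 50% turnover.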

| IC50 (HT-29 tumor cells) [µM] | IC50 [1] [µM] | IC50 (B-Raf delta1-415) [µM] | Compound |
| --- | --- | --- | --- |
| < 10 | > 10 | > 10 | COn1c(=O)c(C(=O)Nc2ccccc2)cc2cnc(Nc3ccccc3)nc21 [Compound 61, 8-Methoxy-2-phenylamino-6-phenylaminocarbonyl-pyrido[2,3-d]pyrimidin-7-one] |
| < 1 | < 0.1 | < 0.1 | COn1c(=O)c(-c2c(Cl)cccc2Cl)cc2cnc(Nc3ccc(OCCN(C)C)cc3)nc21 [Compound 24, 6-(2,6-Dichlorophenyl)-8-methoxy-2-(4-(2-dimethylaminoethoxy)-phenylamino)-pyrido[2,3-d]pyrimidin-7-one] |
| < 10 | < 1 | > 1 | COc1ccccc1-c1cc2cnc(Nc3ccc(OCCN(C)C)cc3)nc2n(OC)c1=O [Compound 50, 2-(4-(2-Dimethylaminoethoxy)-6-(2-methoxyphenyl)-phenylamino)-8-methoxy-pyrido[2,3-d]pyrimidin-7-one] |
| < 1 | < 0.1 | < 0.5 | COn1c(=O)c(-c2c(Cl)cccc2Cl)cc2cnc(Nc3cccc(S(N)(=O)=O)c3)nc21 [Compound 4, 6-(2,6-Dichlorophenyl)-8-methoxy-2-(3-sulfamoylphenylamino)-pyrido[2,3-d]pyrimidin-7-one] |
| < 1 | < 0.5 | < 0.1 | CNCCOn1c(=O)c(-c2c(Cl)cccc2Cl)cc2cnc(Nc3cccc(OC)c3)nc21 [Compound 74, 6-(2,6-Dichlorophenyl)-8-(2-methylaminoethyl)oxy-2-(3-methoxyphenyl)amino-pyrido[2,3-d]pyrimidin-7-one] |
| < 10 | < 0.1 | < 5 | COn1c(=O)c(-c2ccccc2)cc2cnc(Nc3cccc(CO)c3)nc21 [Compound 43, 2-(3-Hydroxymethylphenylamino)-8-methoxy-6-phenyl-pyrido[2,3-d]pyrimidin-7-one] |
